SMILES strings stand for the structures.

The values that follow come from ChEMBL document CHEMBL1143891, “Synthesis of beta- and gamma-oxa isosteres of fosmidomycin and FR900098 as antimalarial candidates” (Bioorg Med Chem, 2008).

Experiment [1] in a line: Inhibition of Escherichia coli DXR.
The next experiment has as its system Plasmodium falciparum. Put plainly: Antimalarial activity against Plasmodium falciparum 3D7 in infected human erythrocytes after 48 hrs. The class given is functional, organism-based. Conditions: 3D7, 48 h.

As to `O=C(COCP(=O)(O)O)NO`, the half-inhibitory concentration (IC50) in experiment [1] was more than 3000 nM. Regarding `CN(O)C(=O)CCCP(=O)(O)O`, the half-inhibitory concentration (IC50) in experiment [1] amounted to 97 nM; in the experiment on Plasmodium falciparum it was 980 nM. As for `CC(=O)N(O)COCP(=O)(O)O`, the half-maximal inhibitory concentration (IC50) came to 87 nM in experiment [1] and 360 nM in the experiment on Plasmodium falciparum. Turning to `CC(=O)N(O)CCCP(=O)(OCOC(=O)C(C)(C)C)OCOC(=O)C(C)(C)C`, the values for the IC50 (in experiment [1]; with Plasmodium falciparum) were more than 30000 nM and 99 nM, respectively. On the same counts, the results for `CN(O)C(=O)COCP(=O)(O)O` are 72 nM and 240 nM. Regarding `O=CN(O)COCP(=O)(O)O`, the half-inhibitory concentration (IC50) was found to be 1110 nM in experiment [1] and 4900 nM in the experiment with Plasmodium falciparum. As to `CN(O)C(=O)OCCP(=O)(O)O`, it took 3000 nM to reach half-maximal inhibition in experiment [1] (IC50). In experiment [1], `O=C(NO)OCCP(=O)(O)O` displayed a half-inhibitory concentration (IC50) of more than 3000 nM.

With `CN(O)C(=O)COCP(=O)(OCOC(=O)C(C)(C)C)OCOC(=O)C(C)(C)C` [BIS(PIVALOYLOXYMETHYL)ESTER], the IC50 in experiment [1] is more than 30000 nM; in the experiment with Plasmodium falciparum, 51 nM. Turning to `O=CN(O)CCCP(=O)(O)O` [FOSMIDOMYCIN], the concentration for half-maximal inhibition (IC50) in experiment [1] stood at 54 nM; in the experiment with Plasmodium falciparum, 1200 nM. For the molecule `CC(=O)N(O)CCCP(=O)(O)O` [FR-900098], the figures for the IC50 (in experiment [1]; in the experiment on Plasmodium falciparum) were 62 nM and 430 nM, respectively.

What is called IC50 is the concentration that inhibits the measured activity by half. A high value points to weaker potency in that assay.
